# Source: patent US20150086504A1, “POLYMERIC MICROEMULSIONS” (Janssen Pharmaceutica NV, priority 2002, published 2015)
# Where two headings read alike, the source gives them in different places.
# Columns and labels:
# [1] = Solubility of model compounds in aqueous solutions of polymer D4.1 (mixed directly with polymeric solution; Table 4B); format: physicochemical; conditions: room temperature, duplicate; for solubility at 24 h: thermodynamic from solid
# Description: The solubility of the other model compounds in aqueous solutions of polymer D4.1 was determined by mixing the model compound directly with the polymeric solution for 24 hours at room temperature. Tested polymer concentrations were 1, 5, 10 and 20% (w/v). The obtained suspension was then filtered through a 0.45 μm PVDF membrane filter. The filtered solution was immediately diluted to allow determination of compound concentration by UV spectroscopy. (A polymer solution of the same concentration as the sample to be analysed was used as blank).
# [2] = Solubility in water of model compounds (UV spectroscopy); conditions: for solubility at 24 h: water, thermodynamic from solid; for solubility in water: mixed with water for 24 hours, UV spectroscopy, mean of triplicate
# [3] = 24 h
# physchem = conditions: water, thermodynamic from solid
# [4] = Pharmacokinetic parameters in plasma (LCMS) after oral administration of risperidone solutions; format: in vivo, Male Wistar rats; conditions: rat plasma, active metabolite, micellar solution D4.3 10% (w/v) compared to reference solution
# Description: Male Wistar rats (˜200 g) were treated by oral administration of vehicles of 2.5 mg/kg risperidone solubilized in three different vehicles (tartaric acid 0.625% v/v (as the reference), copolymer D4.3 1% (w/v) in water and D4.3 10% (w/v) in water). The animals were sacrificed by decapitation 2 hours after administration.
# The above experiment was also performed in function of time for the reference solution and for the D4.3 10% (w/v) aqueous solution. Therefore, animals were sacrificed by decapitation at 10 minutes, 30 minutes, 1 hour, 2 hours, 4 hours, 8 hours, 16 hours and 24 hours after administration of the risperidone formulations. […] During this experiment, the usual pharmacokinetic parameters of the active metabolite following oral administration of the two risperidone solutions were determined by LCMS analysis of the plasma samples. […] This finding confirmed the results of an in vitro release study of risperidone from a micellar solution of the present invention. The in vitro release study was performed by dialysing a micellar solution of the invention containing C^14-radioactive risperidone against water and determining the radioactivity by liquid scintillation counting of samples taken from the water as a function of time.
# [5] = 1% (w/v) aqueous solution of diblock copolymer D4.1, aqueous with cosolvent or surfactant or cyclodextrin, D4.1 polymer concentration 1 w/v %
# [6] = 5% (w/v) aqueous solution of diblock copolymer D4.1, aqueous with cosolvent or surfactant or cyclodextrin, D4.1 polymer concentration 5 w/v %
# [7] = 10% (w/v) aqueous solution of diblock copolymer D4.1, aqueous with cosolvent or surfactant or cyclodextrin, D4.1 polymer concentration 10 w/v %
# [8] = 20% (w/v) aqueous solution of diblock copolymer D4.1, aqueous with cosolvent or surfactant or cyclodextrin, D4.1 polymer concentration 20 w/v %
# [9] = D4.1 polymer concentration 1 w/v %
# [10] = D4.1 polymer concentration 5 w/v %
# [11] = D4.1 polymer concentration 10 w/v %
# [12] = D4.1 polymer concentration 20 w/v %
Structure (SMILES),"solubility at 24 h [1, 5]","solubility at 24 h [1, 6]","solubility at 24 h [1, 7]","solubility at 24 h [1, 8]",solubility at 24 h [2],"Solubility in aqueous solution of diblock copolymer D4.1 [1, 10]",solubility at 24 h (physchem),other results
"Cc1cc(C=CC#N)cc(C)c1Nc1ccnc(Nc2ccc(C#N)cc2)n1 [4-[[4-[[4-(2-cyanoethenyl)-2,6-dimethylphenyl]amino]-2-pyrimidinyl]amino]benzonitrile]",50 µg/mL,120 µg/mL,230 µg/mL,440 µg/mL,0.02 µg/mL,,,
"Cc1cc(C#N)cc(C)c1Oc1nc(Nc2ccc(C#N)cc2)nc(N)c1Br [TMC 125, 4-[[6-amino-5-bromo-2-[(4-cyanophenyl)amino]-4-pyrimidinyl]oxy]-3,5-dimethylbenzonitrile]",60 µg/mL,,520 µg/mL,870 µg/mL,< 1 µg/mL,300 µg/mL,,
"Cc1nc2n(c(=O)c1CCN1CCC(c3noc4cc(F)ccc34)CC1)CCCC2 [Risperidone, risperidone]",,,,,,,60 µg/mL,AUC [4]: slightly higher; Cmax [4]: lower; half-life [4]: longer
"Cc1cc2c(cc1-c1cc(/C=C3\SC(=O)NC3=O)ccc1OC(F)(F)F)C(C)(C)CCC2(C)C [(Z) 5-[[3-(5,6,7,8-tetrahydro-3,5,5,8,8-pentamethyl-2-naphthalenyl)-4-(trifluoromethoxy)phenyl]methylene]-2,4-thiazolidinedione]",34 µg/mL,130 µg/mL,350 µg/mL,580 µg/mL,,,< 0.5 µg/mL,
"C[C@@H]1[C@H](O)[C@@H](C)/C=C/C=C/C=C/C=C/C=C/C=C/C=C/[C@H](O[C@@H]2O[C@H](C)[C@@H](O)[C@H](N)[C@@H]2O)C[C@@H]2O[C@](O)(C[C@@H](O)C[C@@H](O)[C@H](O)CC[C@@H](O)C[C@@H](O)CC(=O)O[C@H]1C)C[C@H](O)[C@H]2C(=O)O [Amphotericin B, amphotericin B]",,,,,,,0.1 µg/mL,
"COc1cc2c(cc1OC)C1=NO[C@@H](CN3CCN(C/C(C)=C/c4ccc(F)cc4)CC3)[C@@H]1CO2 (relative stereo) [3-[[4-[(2E)-3-(4-fluorophenyl)-2-methyl-2-propenyl]-1-piperazinyl]methyl]-3a,4-dihydro-7,8-dimethoxy-3H-[1]benzopyrano[4,3-c]isoxazole [(3R,3aS)-rel-(+)]]",,,,,,1010 µg/mL,,"Solubility in aqueous solution of diblock copolymer D4.1 [1, 9]: 200 µg/mL; Solubility in aqueous solution of diblock copolymer D4.1 [1, 11]: 1880 µg/mL; Solubility in aqueous solution of diblock copolymer D4.1 [1, 12]: 3860 µg/mL; solubility in water [2]: 3 µg/mL"
"Cc1cc(C)c(Nc2ccnc(Nc3ccc(C#N)cc3)n2)c(C)c1 [TMC 120, 4-[[4-[(2,4,6-trimethylphenyl)amino]-2-pyrimidinyl]amino]benzonitrile]",,,,,< 1 µg/mL,,,

# More lines, main results first:
"solubility at 24 h [1, 5]","solubility at 24 h [1, 6]","solubility at 24 h [1, 7]","solubility at 24 h [1, 8]",solubility at 24 h [2],"Solubility in aqueous solution of diblock copolymer D4.1 [1, 10]",solubility at 24 h (physchem),Structure (SMILES),other results
,,,,,9830 µg/mL,,"CS(=O)(=O)O.O=c1c2c([nH]c3ccccc13)[C@@H](c1ccc3c(c1)CCO3)N(c1ccccn1)C2 [3-(2,3-dihydro-5-benzofuranyl)-1,2,3,4-tetrahydro-2-(2-pyridinyl)-9H-pyrrolo[3,4-b]quinolin-9-one, (3R) mono methanesulfonate]","Solubility in aqueous solution of diblock copolymer D4.1 [1, 9]: 4370 µg/mL; Solubility in aqueous solution of diblock copolymer D4.1 [1, 11]: 12380 µg/mL; Solubility in aqueous solution of diblock copolymer D4.1 [1, 12]: 13950 µg/mL; solubility in water [2]: 190 µg/mL"
20 µg/mL,60 µg/mL,100 µg/mL,190 µg/mL,16 µg/mL,,,"CC(=O)NC[C@H]1CN(c2ccc(N3Cc4cn(C)nc4C3)c(F)c2)C(=O)O1 [N-[[(5S)-3-[4-(2,6-dihydro-2-methylpyrrolo[3,4-c]pyrazol-5(4H)-yl)-3-fluorophenyl]-2-oxo-5-oxazolidinyl]methyl]-acetamide]",
,,,,,,10 µg/mL,"COc1ccc2c(c1)c(CC(=O)O)c(C)n2C(=O)c1ccc(Cl)cc1 [Indomethacin, indomethacin]",solubility in water [3]: 10 µg/mL
,,,,10 µg/mL,,,"CC(=O)N1CCN(c2ccc(OCC3COC(Cn4ccnc4)(c4ccc(Cl)cc4Cl)O3)cc2)CC1 (stereo not shown) [Ketoconazole, ketoconazole]",
530 µg/mL,2710 µg/mL,5760 µg/mL,13900 µg/mL,,,15 µg/mL,"Nc1nc(Nc2ccc(S(N)(=O)=O)cc2)nn1C(=O)c1c(F)cccc1F [N3-[4-(aminosulfonyl)phenyl]-1-(2,6-difluorobenzoyl)-1H-1,2,4-triazole-3,5-diamine]",
,,,,,81 µg/mL,,"O=c1c2c([nH]c3ccccc13)[C@@H](c1ccc3c(c1)CCO3)N(c1ncc(-c3ccccn3)cn1)C2 [3-(2,3-dihydro-5-benzofuranyl)-1,2,3,4-tetrahydro-2-[5-(2-pyridinyl)-2-pyrimidinyl]-9H-pyrrolo[3,4-b]quinolin-9-one, (3R)]","Solubility in aqueous solution of diblock copolymer D4.1 [1, 9]: 18 µg/mL; Solubility in aqueous solution of diblock copolymer D4.1 [1, 11]: 150 µg/mL; Solubility in aqueous solution of diblock copolymer D4.1 [1, 12]: 280 µg/mL; solubility in water [2]: <1 µg/mL"
